{"source": "patent US20140286906A1", "about": "“USE OF IGF-1 IN THE MODULATION OF TREG CELL ACTIVITY AND THE TREATMENT AND PREVENTION OF AUTOIMMUNE DISORDERS OR DISEASES” (priority 2011, published 2014)", "key": {"DSS-induced colitis": {"tested_on": "DSS-induced colitis", "assay": "DSS-induced colitis, systemic IGF-1 delivery", "format": "in vivo, mice", "excerpt": "In this example the inventors examined the ability of IGF-1 to suppress inflammation in a mouse model for IBD (DSS-induced colitis, Wirtz et al, 2007). Mice ingested DSS for 7 days and developed an acute colitis. […] This difference in weight with respect to their respective control group was maintained during the duration of the IGF-1 treatment (FIG. 31).\nAdministration of DSS in several cycles results in chronic colitis (Wirtz et al., 2007). To also test if the protective effects of IGF-1 lasted beyond the IGF-1 treatment, mice were administered DSS for another cycle at day 37. […] To further confirm that the observed effects were a consequence of colonic inflammation the inventors performed a histochemical analysis of the colon (FIG. 33). DSS-treated mice presented enlargement of the muscle, mucosa and subepithelial layer and foci of infiltrating cell, the main mediators of inflammation. In contrast, DSS-colitis mice receiving IGF-1 during the initial phase of the treatment for a total of 28 days were protected and did no show this prolonged infiltration of leukocytes. Quantification of these histological parameters (FIG. 34) further confirmed the significant long-term protection in IGF-pretreated mice."}, "[1]": {"tested_on": "FOXP3 positive cells (CD25+ splenic cells)", "assay": "Foxp3 and Ki67 flow cytometric analysis of Treg proliferation", "format": "cell-based, murine", "description": "To determine the effect of IGF-1 in the regulatory subset in vitro (cf. FIG. 4) the number of FOXP3 positive cells is determined by flow cytometric analysis. To analyze other subsets, like the proinflammatory Th1 and Th17 subsets, a similar approach is used but the number of interferon-gamma (Th1) and IL-17 (Th17) positive cells is determined. Additionally, to evaluate the number of proliferating cells at a given moment cells are stained using the intracellular marker Ki67, which is expressed only in cycling cells. The combination of a specific lineage marker (e.g., Foxp3, IFN-g, IL-17) with Ki67 allows for the determination at a given moment of the cells belonging to a certain subset and their proliferative status.\nIn animal experiments, the population is isolated normally from murine spleen (but also could be isolated from other tissues, like for example but not restricted to bone marrow, adipose tissue, cord blood derived mononuclear cell, thymus, or peripheral blood) and is sorted using different markers (e.g., CD4 and CD25). This population is defined as CD4+CD25+ and includes the regulatory cells. This population is then treated in the above-mentioned medium in the presence of IGF-1. After several days of culture part of the cells are counted, fixed, permeabilized and analyzed by flow cytometry using an anti-FOXP3 antibody in combination with the same extracellular markers (CD4 and CD25). This allows for the determination of the absolute number of FOXP3 positive cells present in the culture.\nTo further define the proliferative effects of IGF-1, FACS-sorted CD25+ splenic cells (>98% purity) after two days in culture with recombinant IGF-1 were fixed, permeabilized and stained with antibodies against FOXP3 and Ki67. Foxp3 is a transcription factor that orchestrates the cellular and molecular programs involved in T regulatory function. Ki67 is a nuclear antigen present in proliferating cells. […] After three days of culture the number of FOXP3 positive cells was increased four-fold and the number of regulatory T cells proliferating approximately six-fold."}, "[2]": {"tested_on": "experimental autoimmune encephalomyelitis (EAE)", "format": "in vivo", "description": "Regarding EAE, clinical severity of the disease is scored using a grading score from 0 to 5, where 0 means no clinical signs and 5 means a moribund paralysed mouse. As the disease progresses the body is paralysed progressively from tail to upper limbs. In these experiments the protocol described by Stromnes and Goverman (2006) is used.\nShortly, single cell suspensions are prepared from the […] and spinal cord. The resulting cells are stained with anti-CD4 antibodies and separated using fluorescent-activated cell sorting. RNA is then extracted and purified and serves as a template for a quantitative RT-PCR reaction with Taqman probes. Finally, the relative amount of each mRNA compared to a house-keeping gene (Hprt) is determined.\nBased on these and our previous observations, the inventors hypothesized that systemic and prolonged delivery of IGF-1 in mice developing EAE would increase and correctly localized Tregs and thus positively affect the course of the disease. The inventors therefore implanted subcutaneously the IGF-1 delivery devices and induced EAE in mice. […] In order to determine if the amelioration of the disease was associated with an increase in T regulatory function, the inventors performed immunohistochemical analysis to determine the number and localization of T regulatory cells in the spinal cord at the early stages of the disease. […] There was therefore a negative correlation between the number of Treg cells and the observed clinical score. Moreover, both clinical improvement and increased regulatory cell number associated with IGF-1 treatment were abolished by CTLA-4 blockade, which interferes with regulatory T cell function (FIG. 26; Herman et al., 2004).\nThe inventors induced EAE and mice and initiated the IGF-1 treatment when the first signs of paralysis appeared (FIG. 27)."}, "EAE": {"tested_on": "EAE", "settings": "i.v. 600 μg/day for six days (Liu et al. 1997); cited from earlier work"}, "CD4+CD25+ splenic cells": {"tested_on": "CD4+CD25+ splenic cells", "assay": "qRT-PCR and microarray gene expression in CD4 CD25 double positive splenic cells", "format": "cell-based, murine", "description": "To further support the effect of IGF-1 on T regulatory function qRT-PCR analysis was performed on CD4 CD25 double positive splenic purified cells in the presence or absence of IGF-1 (FIG. 3). […] IL-10 is a cytokine with a potent anti-inflammatory activity that is produced, among others, by regulatory T cells (Mosser and Zhang, 2008) and its expression is not dependent on Foxp3 expression (Gavin et al., 2007). Foxp3 IL10 expressing cells mainly localize in the intestine and are important regulators of intestine homeostasis. For example, mice with conditional deletion of IL-10 develop spontaneous inflammation of the intestine (Roers et al., 2004). […] Additionally, IL-10 is also important for the maintenance of Foxp3 expression in vivo in mice with colitis (Murai et al., 2009). The inventors performed microarray analysis comparing IGF-1 treated and untreated Tregs. […] An example of these genes is granzyme B, which enables T regulatory cells to actively kill APCs and Teff cells in extreme conditions. These and other mechanisms are believed to lead in vivo to the resolution of the immune response (Tang and Bluestone, 2008). Thus, maintaining the suppressive function after cell expansion was a critical aspect regarding the use of IGF-1 for restoring the balance of effector and regulatory."}, "[3]": {"settings": "dose response curve, 2 days stimulation"}, "[4]": {"settings": "RT-PCR day 27, compared to control mice"}, "[5]": {"settings": "qRT-PCR, compared to non-treated cultures"}}}
{"substance": "Insulin-like growth factor-1 [IGF-1]", "values": [{"measurement": "histological signs of colitis, infiltration of leukocytes", "setting": "DSS-induced colitis; IGF-1 for 28 days in initial phase, after re-challenge", "result": "protected"}, {"measurement": "body weight loss", "setting": "DSS-induced colitis; acute phase, DSS for 7 days", "result": "showed protection"}, {"measurement": "thickness of the subepithelial layer of the colon", "setting": "DSS-induced colitis; after re-challenge, versus DSS-only mice, P=0.0004", "result": "significant reduction"}, {"measurement": "thickness of the mucosa of the colon", "setting": "DSS-induced colitis; after re-challenge, versus DSS-only mice, P=0.0007", "result": "significant reduction"}, {"measurement": "thickness of the muscle layer of the colon", "setting": "DSS-induced colitis; after re-challenge, versus DSS-only mice, P=0.053", "result": "significant reduction"}, {"measurement": "difference in weight with respect to control group", "setting": "DSS-induced colitis; during the duration of the IGF-1 treatment", "result": "maintained"}, {"measurement": "body weight loss after DSS re-challenge", "setting": "DSS-induced colitis; second DSS cycle at day 37, no rhIGF-1 delivered in this period", "result": "complete protection"}, {"measurement": "dose range at which FOXP3 positive cells respond", "setting": "[1]; [3]", "result": "falls within physiological ranges"}, {"measurement": "saturability of stimulated pathway/receptor", "setting": "[1]; [3]", "result": "saturable"}, {"measurement": "increase in number of FOXP3 positive cells", "setting": "[1]; three days of culture", "result": "four-fold"}, {"measurement": "increase in number of regulatory T cells proliferating", "setting": "[1]; three days of culture", "result": "approximately six-fold"}, {"measurement": "double positive FOXP3 Ki67 population", "setting": "[1]; two days in culture", "result": "increase"}, {"measurement": "number of FOXP3 positive cells", "setting": "[1]; two days in culture", "result": "increase"}, {"measurement": "Foxp3 expression in CD4 positive cells of the spinal cord", "setting": "[2]; [4]", "result": "increase"}, {"measurement": "IL-10 expression in CD4 positive cells of the spinal cord", "setting": "[2]; [4]", "result": "increase"}, {"measurement": "IL-17 expression in CD4 positive cells of the spinal cord", "setting": "[2]; [4]", "result": "decrease"}, {"measurement": "interferon-gamma expression in CD4 positive cells of the spinal cord", "setting": "[2]; [4]", "result": "decrease"}, {"measurement": "Treg cell number in the spinal cord (immunohistochemistry)", "setting": "[2]; early stages of the disease", "result": "increase in Treg cell number"}, {"measurement": "detrimental effect in EAE", "setting": "[2]; mouse, in vivo", "result": "never showed a detrimental effect"}, {"measurement": "mortality", "setting": "[2]; prophylactic or therapeutic manner, n=34, P=0.028", "result": "significantly reduced mortality"}, {"measurement": "clinical outcome (clinical grading)", "setting": "[2]; prophylactic: delivery device implanted day -3, immunization day 0, 4 weeks, n=13", "result": "improved clinical outcome"}, {"measurement": "clinical severity", "setting": "[2]; therapeutic: applied after onset of disease (day 11), P<0.05 from day 13", "result": "reduced clinical severity"}, {"measurement": "number of infiltrating T cells and macrophages", "setting": "EAE", "result": "reduction"}, {"measurement": "granzyme B gene expression", "setting": "CD4+CD25+ splenic cells; microarray, IGF-1 treated versus untreated Tregs", "result": "upregulated"}, {"measurement": "Foxp3 mRNA", "setting": "CD4+CD25+ splenic cells; [5]", "result": "upregulated from day 1"}, {"measurement": "IL-10 mRNA", "setting": "CD4+CD25+ splenic cells; [5]", "result": "upregulated but with delayed kinetics"}]}
